target: T1, human TLR7 (Homo sapiens, UniProt Q9NYK1); experiment: HEK293-Blue-hTLR-7 cells assay (SEAP reporter, R848 stimulation); format: cell-based; settings: HEK293-Blue-hTLR7 cells, R848 ligand, 20 h incubation
T1 sequence (Q9NYK1 27-1049): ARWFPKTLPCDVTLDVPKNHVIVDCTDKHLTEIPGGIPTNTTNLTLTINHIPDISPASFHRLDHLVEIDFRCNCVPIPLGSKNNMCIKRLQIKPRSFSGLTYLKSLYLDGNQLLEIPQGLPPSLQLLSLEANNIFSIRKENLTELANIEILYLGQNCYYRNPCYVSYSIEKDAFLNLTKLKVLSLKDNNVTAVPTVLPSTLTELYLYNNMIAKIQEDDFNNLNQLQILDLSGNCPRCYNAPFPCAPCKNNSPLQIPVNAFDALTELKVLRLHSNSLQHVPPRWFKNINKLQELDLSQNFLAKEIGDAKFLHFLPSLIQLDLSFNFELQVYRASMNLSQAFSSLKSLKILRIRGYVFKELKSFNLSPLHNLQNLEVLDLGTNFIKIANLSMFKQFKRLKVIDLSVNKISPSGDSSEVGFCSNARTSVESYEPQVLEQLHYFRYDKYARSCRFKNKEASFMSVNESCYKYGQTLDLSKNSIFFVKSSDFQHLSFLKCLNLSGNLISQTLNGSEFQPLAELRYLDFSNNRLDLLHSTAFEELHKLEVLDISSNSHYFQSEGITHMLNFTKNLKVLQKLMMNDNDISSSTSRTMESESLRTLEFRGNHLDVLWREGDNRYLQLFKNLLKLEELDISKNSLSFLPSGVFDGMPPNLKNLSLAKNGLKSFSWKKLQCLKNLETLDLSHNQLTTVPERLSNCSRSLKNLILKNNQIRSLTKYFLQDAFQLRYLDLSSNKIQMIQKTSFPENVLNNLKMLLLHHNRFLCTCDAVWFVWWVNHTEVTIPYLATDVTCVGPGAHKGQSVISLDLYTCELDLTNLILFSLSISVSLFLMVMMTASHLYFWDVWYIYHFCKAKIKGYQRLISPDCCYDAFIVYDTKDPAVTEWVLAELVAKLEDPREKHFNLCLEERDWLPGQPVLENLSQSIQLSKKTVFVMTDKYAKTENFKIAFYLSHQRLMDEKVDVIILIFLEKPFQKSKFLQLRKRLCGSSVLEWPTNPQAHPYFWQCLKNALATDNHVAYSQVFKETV
Procedure: The following tests were carried out in order to determine the activity of the compounds of formula (I) in HEK293-Blue-hTLR-7/8/9 cells assay.
HEK293-Blue-hTLR-7 Cells Assay:
A stable HEK293-Blue-hTLR-7 cell line was purchased from InvivoGen (Cat. #: hkb-htlr7, San Diego, Calif., USA). These cells were originally designed for studying the stimulation of human TLR7 by monitoring the activation of NF-κB. A SEAP (secreted embryonic alkaline phosphatase) reporter gene was placed under the control of the IFN-β minimal promoter fused to five NF-κB and AP-1-binding sites. The SEAP was induced by activating NF-κB and AP-1 via stimulating HEK-Blue hTLR7 cells with TLR7 ligands. Therefore the reporter expression was declined by TLR7 antagonist under the stimulation of a ligand, such as R848 (Resiquimod), for incubation of 20 h. The cell culture supernatant SEAP reporter activity was determined using QUANTI-Blue™ kit (Cat. #: rep-qb1, Invivogen, San Diego, Calif., USA) at a wavelength of 640 nm, a detection medium that turns purple or blue in the presence of alkaline phosphatase.
HEK293-Blue-hTLR7 cells were incubated at a density of 250,000˜450,000 cells/mL in a volume of 170 μL in a 96-well plate in Dulbecco's Modified Eagle's medium (DMEM) containing 4.5 g/L glucose, 50 U/mL penicillin, […], […], 2 mM L-glutamine, 10% (v/v) heat-inactivated fetal bovine serum with addition of 20 μL test compound in a serial dilution in the presence of final DMSO at 1% and 10 μL of 20 uM R848 in above DMEM, perform incubation under 37° C. in a CO2 incubator for 20 h. Then 20 μL of the supernatant from each well was incubated with 180 μL Quanti-blue substrate solution at 37° C. for 2 h and the absorbance was read at 620-655 nm using a spectrophotometer. The signalling pathway that TLR7 activation leads to downstream NF-κB activation has been widely accepted, and therefore similar reporter assay was modified for evaluating TLR7 antagonist.

IC50 [µM] | SMILES
0.012 | C[C@@H]1CN(c2ccc(C#N)c3ncccc23)C[C@H](C2=Nc3ccc(N4CCNCC4)cc3CN2)O1 [Example 7, 5-[(2R,6R)-2-methyl-6-(6-piperazin-1-yl-3,4-dihydroquinazolin-2-yl)morpholin-4-yl]quinoline-8-carbonitrile]
0.13 | C[C@@H]1CN(c2ccc(C#N)c3ncccc23)C[C@H](C2=Nc3cccc(C4CCNCC4)c3CN2)O1 [Example 18, 5-[(2R,6R)-2-methyl-6-[5-(4-piperidyl)-3,4-dihydroquinazolin-2-yl]morpholin-4-yl]quinoline-8-carbonitrile]
0.362 | C[C@@H]1CN(c2ccc(C#N)c3ncccc23)C[C@H](C2=Nc3ccc(N4CCNCC4)cc3CCN2)O1 [Example 17, 5-[(2R,6R)-2-methyl-6-(7-piperazin-1-yl-4,5-dihydro-3H-1,3-benzodiazepin-2-yl)morpholin-4-yl]quinoline-8-carbonitrile]
0.018 | C[C@@H]1CN(c2ccc(C#N)c3ncccc23)C[C@H](C2=Nc3cc(N4CCNCC4)ccc3CN2)O1 [Example 8, 5-[(2R,6R)-2-methyl-6-(7-piperazin-1-yl-3,4-dihydroquinazolin-2-yl)morpholin-4-yl]quinoline-8-carbonitrile]
0.251 | C[C@@H]1CN(c2ccc(C#N)c3ncccc23)C[C@H](C2=Nc3cccc(C4=CCNCC4)c3CCN2)O1 [Example 16, 5-[(2R,6R)-2-methyl-6-[6-(1,2,3,6-tetrahydropyridin-4-yl)-4,5-dihydro-3H-1,3-benzodiazepin-2-yl]morpholin-4-yl]quinoline-8-carbonitrile]
0.294 | C[C@@H]1CN(c2ccc(C#N)c3ncccc23)C[C@H](C2=Nc3cccc(N4CCC5(CCNC5)C4)c3CN2)O1 (stereo partly drawn) [Example 13, 5-[(2R,6R)-2-[5-(2,7-diazaspiro[4.4]nonan-2-yl)-3,4-dihydroquinazolin-2-yl]-6-methyl-morpholin-4-yl]quinoline-8-carbonitrile]
0.04 | C[C@@H]1CN(c2ccc(C#N)c3ncccc23)C[C@H](C2=Nc3cccc(N4CCNCC4)c3CN2)O1 [Example 6, 5-[(2R,6R)-2-methyl-6-(5-piperazin-1-yl-3,4-dihydroquinazolin-2-yl)morpholin-4-yl]quinoline-8-carbonitrile]
0.036 | C[C@@H]1CN(c2ccc(C#N)c3ncccc23)C[C@H](C2=Nc3c(cccc3N3CCNCC3)CN2)O1 [Example 9, 5-[(2R,6R)-2-methyl-6-(8-piperazin-1-yl-3,4-dihydroquinazolin-2-yl)morpholin-4-yl]quinoline-8-carbonitrile]
0.083 | C[C@@H]1CN(c2ccc(C#N)c3ncccc23)C[C@H](C2=Nc3cccc(N4CCN(C)CC4)c3CN2)O1 [Example 12, 5-[(2R,6R)-2-methyl-6-[5-(4-methylpiperazin-1-yl)-3,4-dihydroquinazolin-2-yl]morpholin-4-yl]quinoline-8-carbonitrile]
